These results are taken from ChEMBL document CHEMBL1833800, “Synthesis, preliminary biological evaluation and molecular modeling of some new heterocyclic inhibitors of TACE” (Eur J Med Chem, 2011).

The target in this experiment is Disintegrin and metalloproteinase domain-containing protein 17 (Homo sapiens, UniProt P78536). Description: Inhibition of TACE in human whole blood assessed as reduction of LPS-induced TNFalpha production pretreated 15 mins before LPS challenge measured 5 hrs post LPS challenge.
Sequence of Disintegrin and metalloproteinase domain-containing protein 17 (P78536 whole entry, the tested form may be a part): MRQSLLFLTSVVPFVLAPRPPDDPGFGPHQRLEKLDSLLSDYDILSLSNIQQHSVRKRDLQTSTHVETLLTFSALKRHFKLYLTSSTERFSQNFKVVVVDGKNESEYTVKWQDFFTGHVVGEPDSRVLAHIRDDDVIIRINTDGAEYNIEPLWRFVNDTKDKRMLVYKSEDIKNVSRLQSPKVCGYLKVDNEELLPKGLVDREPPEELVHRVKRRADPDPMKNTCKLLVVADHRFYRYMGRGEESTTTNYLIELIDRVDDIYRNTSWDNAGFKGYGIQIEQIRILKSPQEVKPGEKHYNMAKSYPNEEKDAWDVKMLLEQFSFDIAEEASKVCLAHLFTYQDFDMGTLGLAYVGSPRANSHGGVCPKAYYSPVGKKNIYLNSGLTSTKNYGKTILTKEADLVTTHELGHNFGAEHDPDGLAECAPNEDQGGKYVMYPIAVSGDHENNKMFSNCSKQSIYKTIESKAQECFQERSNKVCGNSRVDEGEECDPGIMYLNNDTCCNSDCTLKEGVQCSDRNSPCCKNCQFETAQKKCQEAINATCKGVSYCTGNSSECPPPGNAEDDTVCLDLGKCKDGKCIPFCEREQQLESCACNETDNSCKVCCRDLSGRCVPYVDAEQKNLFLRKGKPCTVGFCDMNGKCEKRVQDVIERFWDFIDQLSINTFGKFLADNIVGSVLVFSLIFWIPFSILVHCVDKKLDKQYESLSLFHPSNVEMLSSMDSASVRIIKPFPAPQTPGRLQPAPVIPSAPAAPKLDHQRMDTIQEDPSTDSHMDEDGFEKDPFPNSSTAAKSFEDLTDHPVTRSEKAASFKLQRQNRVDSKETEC

For orientation: IC50 means the point on the concentration scale where inhibition reaches its midpoint. For `O=C(N[C@@H]1CCCC[C@@H]1C(=O)NO)c1ccc(Cn2c(C(F)(F)F)nc3ccccc32)nc1`, the IC50 is 0.28 µM. In the case of `O=C(N[C@@H]1CCC[C@@H]1C(=O)NO)c1ccc(Cn2c(C(F)(F)F)nc3ccccc32)nc1` (single isomer, unassigned) it was 0.074 µM. Consider `Cc1nc2ccccc2n1Cc1ccc(C(=O)N[C@@H]2CCC[C@@H]2C(=O)NO)cn1` (single isomer, unassigned), for which the IC50 was 0.07 µM.

`O=C(N[C@@H]1CCOC[C@@H]1C(=O)NO)c1ccc(Cn2c(C(F)(F)F)nc3ccccc32)nc1`: the IC50 is 0.16 µM.

As for `Cc1nc2ccccc2n1Cc1ccc(C(=O)N[C@@H]2CCCC[C@@H]2C(=O)NO)cn1`, the IC50 was found to be 0.126 µM. For `Cc1nc2ccccc2n1Cc1ccc(C(=O)N[C@@H]2CCOC[C@@H]2C(=O)NO)cn1` the value was 0.08 µM.
